Source: the supplement of paper PMC10307832

Experiments:
Assay in all cases: relative viability (nuclei count vs DMSO), 5 days (fraction); higher = more cells survive
AZD1208 + Decitabine = compound: N[C@@H]1CCCN(c2c(/C=C3\SC(=O)NC3=O)cccc2-c2ccccc2)C1 [AZD1208] + Nc1ncn([C@H]2C[C@H](O)[C@@H](CO)O2)c(=O)n1 [Decitabine] (partner 2 µM)
Outline: (§1)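 Relative viability is defined as nuclei in treated wells over nuclei in vehicle wells. Duplicate plates were run and medians reported. Lung cancer cell lines in 1536-well plates were dosed by pin tool one day after seeding, with one drug or with a fixed anchor-drug dose plus five library-drug doses (not always all listed) in √10 steps, and nuclei were counted after 5 days.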

AZD1208 + Vorinostat = compound: N[C@@H]1CCCN(c2c(/C=C3\SC(=O)NC3=O)cccc2-c2ccccc2)C1 [AZD1208] + O=C(CCCCCCC(=O)Nc1ccccc1)NO [Vorinostat] (partner 1 µM)
Outline: as §1

AZD1208 + Dasatinib = compound: N[C@@H]1CCCN(c2c(/C=C3\SC(=O)NC3=O)cccc2-c2ccccc2)C1 [AZD1208] + Cc1nc(Nc2ncc(C(=O)Nc3c(C)cccc3Cl)s2)cc(N2CCN(CCO)CC2)n1 [Dasatinib] (partner 0.075 µM)
Outline: as §1

XMD14-99 + Vorinostat = compound: CN1CCN(CC1)C2=CC(=C(C=C2)NC3=NC(=C(S3)C(=O)C4=C(C=CC=C4Cl)Cl)N)OC [XMD14-99] + O=C(CCCCCCC(=O)Nc1ccccc1)NO [Vorinostat] (partner 1 µM)
Outline: as §1

Cell Line	relative viability (AZD1208 + Decitabine; first compound 0.08 µM)	relative viability (AZD1208 + Decitabine; first compound 0.253 µM)	relative viability (AZD1208 + Decitabine; first compound 0.8 µM)	relative viability (AZD1208 + Decitabine; first compound 2.53 µM)	relative viability (AZD1208 + Decitabine; first compound 8 µM)	relative viability (AZD1208 + Vorinostat; first compound 0.08 µM)	relative viability (AZD1208 + Vorinostat; first compound 0.253 µM)	relative viability (AZD1208 + Vorinostat; first compound 0.8 µM)	relative viability (AZD1208 + Vorinostat; first compound 2.53 µM)	relative viability (AZD1208 + Vorinostat; first compound 8 µM)	relative viability (AZD1208 + Dasatinib; first compound 0.08 µM)	relative viability (AZD1208 + Dasatinib; first compound 0.253 µM)	relative viability (AZD1208 + Dasatinib; first compound 0.8 µM)	relative viability (AZD1208 + Dasatinib; first compound 2.53 µM)	relative viability (AZD1208 + Dasatinib; first compound 8 µM)	relative viability (XMD14-99 + Vorinostat; first compound 0.08 µM)	relative viability (XMD14-99 + Vorinostat; first compound 0.8 µM)	relative viability (XMD14-99 + Vorinostat; first compound 2.53 µM)	relative viability (XMD14-99 + Vorinostat; first compound 8 µM)
COR-L23	0.439	0.502	0.412	0.396	0.395	0.488	0.401	0.49	0.433	0.41	0.471	0.508	0.479	0.452	0.523	0.409	0.415	0.304	0.181
HCC-78	0.685	0.629	0.646	0.704	0.697	0.435	0.444	0.413	0.403	0.37	0.421	0.439	0.328	0.35	0.34	0.404	0.408	0.369	0.382
NCI-H838	0.458	0.491	0.465	0.493	0.406	0.679	0.661	0.639	0.682	0.689	0.329	0.365	0.272	0.311	0.274	0.685	0.626	0.577	0.414
NCI-H2126	0.563	0.641	0.523	0.501	0.475	0.745	0.669	0.676	0.535	0.563	0.554	0.453	0.475	0.436	0.394	0.694	0.806	0.694	0.579
BEN	0.779	0.577	0.653	0.653	0.564	0.61	0.584	0.49	0.503	0.427	0.334	0.243	0.285	0.299	0.314	0.591	0.547	0.595	0.522
LCLC-103H	0.715	0.654	0.707	0.723	0.743	0.772	0.858	0.789	0.613	0.697	0.448	0.501	0.421	0.448	0.33	0.786	0.798	0.759	0.664
NCI-H1648	0.631	0.476	0.464	0.547	0.567	0.371	0.491	0.298	0.36	0.89						0.397	0.287	0.437	0.395
NCI-H1563											0.465	0.433	0.421	0.447	0.395				
A549	0.238	0.301	0.218	0.314	0.17														
NCI-H1623											0.633	0.514	0.484	0.438	0.632				
IA-LM						0.922	1.27	0.778	0.863	0.853						0.96	0.728	0.649	0.515
CAL-12T						0.675	0.814	0.565	0.653	0.439	0.316	0.393	0.329	0.48	0.464	0.685	0.894	0.627	0.613
